Experimental data taken from ChEMBL document CHEMBL5512659, “Structure optimizing of flavonoids against both MRSA and VRE” (Eur J Med Chem, 2024).
Converted amounts (≈) assume the structure as drawn. The source made the active and inactive calls. No cut-off for these calls is given here.

Columns and labels:
Enterococcus faecalis [1] = experiment: Antibiofilm activity in multidrug resistant Enterococcus faecalis ATCC 51299 by crystal violet staining based analysis; assay type: functional
Staphylococcus aureus [2] = experiment: Antibacterial activity against methicillin resistant Staphylococcus aureus clinical isolate 003 infected in cyclophosphamide immunosuppressed mouse model of skin wound infection assessed as wound healing at 5 mg/kg administered for 7 days and measured on day 8; assay type: functional, organism-based; details: time 8.0 day
[3] = Toxicity in Galleria mellonella assessed as survival rate at 10 mg/kg observed after 7 days; assay type: organism-based; details: in vivo, time 7 day
Staphylococcus aureus [4] = experiment: Antibacterial activity against methicillin resistant Staphylococcus aureus clinical isolate 003 infected in cyclophosphamide immunosuppressed mouse model of skin wound infection assessed as reduction in bacterial load in wound at 5 mg/kg administered for 7 days and measured on day 8 (reference value: 1.6 x 10^8 CFU); assay type: functional; details: time 8 day
Enterococcus faecalis [5] = experiment: Antibacterial activity against Enterococcus faecalis clinical isolate 13; assay type: functional
Staphylococcus aureus [6] = experiment: Antibiofilm activity in methicillin resistant Staphylococcus aureus clinical isolate 003 by crystal violet staining based analysis; assay type: functional
Enterococcus faecalis [7] = experiment: Antibacterial activity against multidrug resistant Enterococcus faecalis ATCC 51299; assay type: functional
Staphylococcus aureus [8] = experiment: Antibacterial activity against Staphylococcus aureus clinical isolate 29; assay type: functional
Enterococcus faecalis [9] = experiment: Antibacterial activity against multidrug resistant Enterococcus faecalis ATCC 51299 assessed as resistance development by measuring fold increase in MIC measured after 20 passages; assay type: functional
Staphylococcus aureus [10] = experiment: Antibacterial activity against methicillin resistant Staphylococcus aureus clinical isolate 031; assay type: functional
Staphylococcus aureus [11] = experiment: Antibacterial activity against Staphylococcus aureus clinical isolate 31; assay type: functional
Enterococcus faecalis [12] = experiment: Antibacterial activity against Enterococcus faecalis clinical isolate 7; assay type: functional
Enterococcus faecalis [13] = experiment: Antibacterial activity against multidrug resistant Enterococcus faecalis ATCC 51299 infected in cyclophosphamide immunosuppressed mouse model of abdominal infection assessed as eradication of bacterial colonies in spleen at 5 mg/kg measured after 60 hrs relative to control; assay type: functional
Enterococcus faecalis [14] = experiment: Antibacterial activity against multidrug resistant Enterococcus faecalis ATCC 51299 infected in cyclophosphamide immunosuppressed mouse model of abdominal infection assessed as eradication of bacterial colonies in kidney at 5 mg/kg measured after 60 hrs relative to control; assay type: functional
Staphylococcus aureus [15] = experiment: Antibacterial activity against methicillin resistant Staphylococcus aureus clinical isolate 003; assay type: functional
Enterococcus faecalis [16] = experiment: Antibacterial activity against multidrug resistant Enterococcus faecalis ATCC 51299 infected in cyclophosphamide immunosuppressed mouse model of abdominal infection assessed as eradication of bacterial colonies in ascites at 5 mg/kg measured after 60 hrs relative to control; assay type: functional
Enterococcus faecalis [17] = experiment: Antibacterial activity against multidrug resistant Enterococcus faecalis ATCC 51299 infected in cyclophosphamide immunosuppressed mouse model of abdominal infection assessed as eradication of bacterial colonies in liver at 5 mg/kg measured after 60 hrs relative to control; assay type: functional
Staphylococcus aureus [18] = experiment: Antibacterial activity against methicillin resistant Staphylococcus aureus clinical isolate 011; assay type: functional

Compound	MBEC (Enterococcus faecalis [1]) [µg/mL]	Activity (Staphylococcus aureus [2])	survival at 168 h [3] [%]	Activity (Staphylococcus aureus [4])	MIC (Enterococcus faecalis [5]) [mg/L]	MBEC (Staphylococcus aureus [6]) [µg/mL]	MIC (Enterococcus faecalis [7]) [mg/L]	MIC (Staphylococcus aureus [8]) [mg/L]	fold change (FC) (Enterococcus faecalis [9])	MIC (Staphylococcus aureus [10]) [mg/L]	MIC (Staphylococcus aureus [11]) [mg/L]	MIC (Enterococcus faecalis [12]) [mg/L]	Activity (Enterococcus faecalis [13]) [%]	Activity (Enterococcus faecalis [14]) [%]	MIC (Staphylococcus aureus [15]) [mg/L]	Activity (Enterococcus faecalis [16]) [%]	Activity (Enterococcus faecalis [17]) [%]	MIC (Staphylococcus aureus [18]) [mg/L]
CN[C@H](CC(C)C)C(=O)N[C@H]1C(=O)N[C@@H](CC(N)=O)C(=O)N[C@H]2C(=O)N[C@H]3C(=O)N[C@H](C(=O)N[C@H](C(=O)O)c4cc(O)cc(O)c4-c4cc3ccc4O)[C@H](O)c3ccc(c(Cl)c3)Oc3cc2cc(c3O[C@@H]2O[C@H](CO)[C@@H](O)[C@H](O)[C@H]2O[C@H]2C[C@](C)(N)[C@H](O)[C@H](C)O2)Oc2ccc(cc2Cl)[C@H]1O [VANCOMYCIN]	>256	Active	80	5.1 10^6CFU	2 (≈ 1.38 µM)	>256	> 128	–	–	–	–	–	–	–	–	–	–	–
CC1(C)S[C@@H]2[C@H](NC(=O)[C@H](N)c3ccccc3)C(=O)N2[C@H]1C(=O)O [AMPICILLIN]	>256	–	–	–	2 (≈ 5.72 µM)	>256	2 (≈ 5.72 µM)	2 (≈ 5.72 µM)	16	> 128	2 (≈ 5.72 µM)	2 (≈ 5.72 µM)	83.11	95.99	> 128	89.18	90.58	> 128
CCCCCCc1c(-c2ccc(O)cc2O)oc2cc(OC)cc(O)c2c1=O	–	–	–	–	8 (≈ 20.8 µM)	–	8 (≈ 20.8 µM)	4 (≈ 10.4 µM)	–	4 (≈ 10.4 µM)	4 (≈ 10.4 µM)	4 (≈ 10.4 µM)	–	–	4 (≈ 10.4 µM)	–	–	4 (≈ 10.4 µM)
